Laboratory results from patent US11352350B2, “IRAK degraders and uses thereof” (Kymera Therapeutics, Inc., priority 2018, dated 2022).

Key:
[1] = test system: OCI-LY10; assay: CTG Cell Viability Assay - OCI-LY10; format: cell-based, human; conditions: Homo sapiens, OCI-Ly10, 96 h, OCI-LY10, 4 days; read-out: CTG Cell Viability Assay - OCI-LY10: Average external-IC50
Method in brief: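 Viability read by CellTiter-Glo luminescence after 4 days at 37° C under 5% CO2 with compound (top 10 μM final, 1:3 steps, 9 doses, DMSO 0.2%). Three-parameter logistic fit gave IC50.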

[2] = biological target: T1, IRAK4 (Homo sapiens (Human), UniProt Q9NWZ3); assay: hPBMC IRAK4 degradation flow assay; format: cell-based; conditions: hPBMC monocyte
T1 sequence (Q9NWZ3 whole entry): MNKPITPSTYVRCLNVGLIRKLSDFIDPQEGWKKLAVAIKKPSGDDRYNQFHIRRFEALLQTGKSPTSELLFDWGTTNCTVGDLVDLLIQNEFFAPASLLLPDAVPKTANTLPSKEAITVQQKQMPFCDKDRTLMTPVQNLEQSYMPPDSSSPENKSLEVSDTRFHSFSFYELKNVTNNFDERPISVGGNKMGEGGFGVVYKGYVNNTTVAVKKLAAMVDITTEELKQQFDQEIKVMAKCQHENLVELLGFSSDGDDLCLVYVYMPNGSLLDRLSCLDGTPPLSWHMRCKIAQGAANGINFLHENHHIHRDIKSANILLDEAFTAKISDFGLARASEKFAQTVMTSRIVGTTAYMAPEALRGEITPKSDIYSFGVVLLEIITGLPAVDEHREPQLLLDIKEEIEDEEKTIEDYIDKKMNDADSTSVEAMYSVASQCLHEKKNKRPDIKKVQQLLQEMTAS
Method in brief: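 Thawed human PBMCs treated with 10-point, 5-fold compound dilutions (0.1% DMSO) at 37° C. for 20 hours or 4 hours. IRAK4 measured by flow MFI in CD14+ monocytes and CD14− lymphocytes, normalized to DMSO and 10 μM 20-hour control; DC50 and max degradation from 4-parameter logistic fit.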

[3] = biological target: T1, IRAK4; assay: IRAK4 MSD degradation in OCI-LY10; format: cell-based
Method in brief: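 Remaining IRAK4 quantified by electrochemiluminescent MSD sandwich assay with two anti-IRAK4 antibodies. Compounds were dosed as 8 concentrations in 1:3 steps from a 1 to 10 μM final top on OCI-LY10 cells, incubated 4 to 24 h at 37° C. under 5% CO2. DC50 fitted with a three-parameter logistic curve.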

[4] = test system: IL-6; assay: IL-6 secretion in hPBMC using R848 stimulation; format: cell-based, human; conditions: hPBMC, R848 as stim, t = 20 h
[5] = 20 hr, flow assay, read-out: IRAK4 degradation in hPBMC monocyte at 20 hr: Average external Abs DC50
[6] = OCI-LY10, 4 hrs, MSD, read-out: IRAK4 MSD degradation in OCI-LY10 at 4 hrs: Average external-Abs DC50
[7] = 20 hrs, read-out: IRAK4 degradation in hPBMC monocyte: DC50
[8] = OCI-LY10, 4 hrs, read-out: IRAK4 MSD degradation in OCI-LY10 at 4 hrs: DC50

SMILES | IC50 [1] [nM] | DC50 [2, 5] [nM] | DC50 [3, 6] [nM] | DC50 ([3]; OCI-LY10, 24 hrs, MSD, read-out: IRAK4 MSD degradation in OCI-LY10 at 24 hrs: Average external-Abs DC50) [nM] | IC50 ([4]; Homo sapiens, 20 h) [nM] | DC50 [2, 7] [nM] | DC50 [3, 8] [nM] | IC50 [4] [nM]
CC[C@@H]1[C@H](F)C(=O)N[C@@H]1COc1ncc(C#C[C@H]2CC[C@H](CN(C)CCCOCCCc3ccc4c(c3)n(C)c(=O)n4C3CCC(=O)NC3=O)CC2)c2cc(C(N)=O)c(OC)cc12 (some centres unmarked) [I-185] | > 1000 | < 10 | 10 to 100 | 10 to 100 | < 1 |  |  | 
Cn1c(=O)n(C2CCC(=O)NC2=O)c2cccc(CC3CC4(CCN(C(=O)c5ccc(-n6cc(NC(=O)c7cnn8ccc(N9C[C@H]%10C[C@@H]9CO%10)nc78)c(C(F)F)n6)cc5)CC4)C3)c21 (some centres unmarked) [I-423] | > 1000 | < 10 | 100 to 1000 |  | 1 to 10 |  |  | 
Cn1c(=O)n(C2CCC(=O)NC2=O)c2cccc(C#CCCCNC[C@H]3CC[C@H](n4cc(NC(=O)c5cnn6ccc(N7C[C@H]8C[C@@H]7CO8)nc56)c(C(F)F)n4)CC3)c21 (stereo partly drawn) [I-518, N-[3-(difluoromethyl)-1-[4-[[5-[1-(2,6-dioxo-3-piperidyl)-3-methyl-2-oxo-benzimidazol-4-yl]pent-4-ynylamino]methyl]cyclohexyl]pyrazol-4-yl]-5-[(1R)-2-oxa-5-azabicyclo[2.2.1]heptan-5-yl]pyrazolo[1,5-a]pyrimidine-3-carboxamide] | > 1000 |  |  |  | 1 to 10 | < 10 | 10 to 100 | 
O=C1CCC(n2c3cccc(C#CCOC4CCN(C[C@H]5CC[C@H](n6cc(NC(=O)c7cnn8ccc(N9C[C@H]%10C[C@@H]9CO%10)nc78)c(C(F)F)n6)CC5)CC4)c3c3cccnc32)C(=O)N1 (some centres unmarked) [I-482] | > 1000 |  |  |  | 1 to 10 | 100 to 1000 | 10 to 100 | 
O=C1CCC(n2c3ccccc3c3c(CCCN4CC5(CCN(C(=O)[C@H]6CC[C@H](n7cc(NC(=O)c8cnn9ccc(N%10C[C@H]%11C[C@@H]%10CO%11)nc89)c(C(F)F)n7)CC6)CC5)C4)ccnc32)C(=O)N1 (some centres unmarked) [I-447] | > 1000 |  |  |  | 1 to 10 | < 10 | 10 to 100 | 
CN1C(=O)C(C2CCC(=O)NC2=O)c2cc(CCCOC3CCN(C[C@H]4CC[C@H](C5N=C(NC(=O)c6cnn7ccc(N8C[C@H]9C[C@@H]8CO9)nc67)C(C(F)F)=N5)CC4)CC3)ccc21 (some centres unmarked) [I-553] | > 1000 |  |  |  | 1 to 10 | 10 to 100 | 100 to 1000 | 
CN(CC(CCCOCCCc1cccc2c1n(C)c(=O)n2C1CCC(=O)NC1=O)C(=O)O)C[C@H]1CC[C@H](n2cc(NC(=O)c3cnn4ccc(N5C[C@H]6C[C@@H]5CO6)nc34)c(C(F)F)n2)CC1 (stereo partly drawn) [I-495, 2-[[[4-[3-(Difluoromethyl)-4-[[5-[(1R,4R)-2-oxa-5-azabicyclo [2.2.1]heptan-5-yl]pyrazolo [1,5-a]pyrimidine-3-carbonyl]amino]pyrazol-1-yl]cyclohexyl]methyl-methyl-amino]methyl]-5-[3-[1-(2,6-dioxo-3-piperidyl)-3-methyl-2-oxo-benzimidazol-4-yl]propoxy]pentanoic acid] | > 1000 |  |  |  | 10 to 100 | 10 to 100 | 100 to 1000 | 
Cn1c(=O)n(C2CCC(=O)NC2=O)c2cccc(C#CCN3CCC4(CC3)CN(C[C@H]3CC[C@H](n5cc(NC(=O)c6cnn7ccc(N8C[C@H]9C[C@@H]8CO9)nc67)c(C(F)F)n5)CC3)C4)c21 (some centres unmarked) [I-485] | > 1000 |  |  |  | 1 to 10 | < 10 | 10 to 100 | 
Cn1c(=O)n(C2CCC(=O)NC2=O)c2cccc(CCCN3CCOC4(CCN(C[C@H]5CC[C@H](n6cc(NC(=O)c7cnn8ccc(N9C[C@H]%10C[C@@H]9CO%10)nc78)c(C(F)F)n6)CC5)CC4)C3)c21 (some centres unmarked) [I-450] | > 1000 |  |  |  |  | < 10 | 10 to 100 | 1 to 10
Cn1c(=O)n(C2CCC(=O)NC2=O)c2cccc(CC[C@H]3CN(C[C@H]4CC[C@H](n5cc(NC(=O)c6cnn7ccc(N8CCCOCC8)nc67)c(C(F)F)n5)CC4)CCO3)c21 (some centres unmarked) [I-516] | > 1000 |  |  |  | 1 to 10 | < 10 | 10 to 100 | 
Cn1c(=O)n(C2CCC(=O)NC2=O)c2cccc(CCCN3CCC4(CC3)CN(C(=O)[C@H]3CC[C@H](n5cc(NC(=O)c6cnn7ccc(N8C[C@H]9C[C@@H]8CO9)nc67)c(C(F)F)n5)CC3)C4)c21 (some centres unmarked) [I-422] | > 1000 | < 10 | 10 to 100 |  | < 1 |  |  | 
Cc1ccc(-c2nn([C@H]3CC[C@H](C(=O)N4CCC5(CC4)CN(CCCc4cccc6c4n(C)c(=O)n6C4CCC(=O)NC4=O)C5)CC3)cc2NC(=O)c2cnn3cccnc23)nc1 (some centres unmarked) [I-499] | > 1000 |  |  |  | 1 to 10 | < 10 | < 10 | 
Cn1c(=O)n(C2CCC(=O)NC2=O)c2cccc(CCCOC[C@@H]3CN(C[C@H]4CC[C@H](n5cc(NC(=O)c6cnn7ccc(N8CCOCC8)nc67)c(C(F)F)n5)CC4)CCO3)c21 (some centres unmarked) [I-448] | > 1000 |  |  |  | 1 to 10 | < 10 | 10 to 100 | 
Cn1c(=O)n(C2CCC(=O)NC2=O)c2cccc(CCCOC3CCN(C[C@H]4CC[C@H](n5cc(NC(=O)c6cnn7cccnc67)c(N6CCOCC6)n5)CC4)CC3)c21 (some centres unmarked) [I-481] | > 1000 |  |  |  | 10 to 100 | 100 to 1000 | 100 to 1000 | 
Cn1c(=O)n(C2CCC(=O)NC2=O)c2cccc(CCC3CCN(C[C@H]4CC[C@H](n5cc(NC(=O)c6cnn7ccc(N8C[C@H]9C[C@@H]8CO9)nc67)c(C(F)F)n5)CC4)CC3)c21 (some centres unmarked) [I-487] | > 1000 |  |  |  | < 1 | < 10 | 10 to 100 | 
Cn1c(=O)n(C2CCC(=O)NC2=O)c2cccc(CN3CCC(OC4CCN(C[C@H]5CC[C@H](n6cc(NC(=O)c7cnn8ccc(N9C[C@H]%10C[C@@H]9CO%10)nc78)c(C(F)F)n6)CC5)CC4)CC3)c21 (some centres unmarked) [I-513] | > 1000 |  |  |  | < 1 | < 10 | < 10 | 
Cn1c(=O)n(C2CCC(=O)NC2=O)c2cccc(CCCCC3CCN(C(=O)c4ccc(-n5cc(NC(=O)c6cnn7ccc(N8C[C@H]9C[C@@H]8CO9)nc67)c(C(F)F)n5)cc4)CC3)c21 (some centres unmarked) [I-426] | > 1000 | < 10 | 100 to 1000 |  | 1 to 10 |  |  | 
Cn1c(=O)n(C2CCC(=O)NC2=O)c2cccc(OC3CC4(CCN(C[C@H]5CC[C@H](n6cc(NC(=O)c7cnn8ccc(N9C[C@H]%10C[C@@H]9CO%10)nc78)c(C(F)F)n6)CC5)CC4)C3)c21 (some centres unmarked) [I-526] | > 1000 |  |  |  | < 1 | < 10 | < 10 | 
Cn1c(=O)n(C2CCC(=O)NC2=O)c2cccc(C#CCN3CCC4(CC3)CN(C(=O)[C@H]3CC[C@H](n5cc(NC(=O)c6cnn7ccc(N8C[C@H]9C[C@@H]8CO9)nc67)c(C(F)F)n5)CC3)C4)c21 (some centres unmarked) [I-418] | > 1000 | 10 to 100 | 10 to 100 |  | 1 to 10 |  |  | 
Cn1c(=O)n(C2CCC(=O)NC2=O)c2cccc(CCCC3CCN(C[C@H]4CC[C@H](n5cc(NC(=O)c6cnn7ccc(N8C[C@H]9C[C@@H]8CO9)nc67)c(C(F)F)n5)CC4)CC3)c21 (some centres unmarked) [I-416] | > 1000 | < 10 | < 10 |  | < 1 |  |  | 
Cn1c(=O)n(C2CCC(=O)NC2=O)c2cccc(CCC(=O)N3CCC4(CC3)CN(C[C@H]3CC[C@H](n5cc(NC(=O)c6cnn7ccc(N8C[C@H]9C[C@@H]8CO9)nc67)c(C(F)F)n5)CC3)C4)c21 (some centres unmarked) [I-414] | > 1000 | < 10 | < 10 |  | < 1 |  |  | 
CN(C[C@H]1CC[C@H](C2N=C(NC(=O)c3cnn4ccc(N5C[C@H]6C[C@@H]5CO6)nc34)C(C(F)F)=N2)CC1)C1CCC2(CC1)CC(Cc1cccc3c1n(C)c(=O)n3C1CCC(=O)NC1=O)C2 (some centres unmarked) [I-554] | > 1000 |  |  |  | < 1 | < 10 | 10 to 100 | 
